This is an account of results in patent US11426415B2, “Treatment for Wolfram syndrome and other endoplasmic reticulum stress disorders” (Washington University, priority 2017, dated 2022).

Read-outs that look alike come from different tables or passages of the source.

In one data set the test system is WFS1 gene knockout mice. In words: Motor function study, 90° inclined screen test. Format: in vivo. The settings on record: i.p. 15 mg/kg/day, 5 days per week, 6 weeks, vs control mice, FIG. 11. Here is the method: WFS1 gene knockout mice, a mouse model of Wolfram syndrome, were treated with JTV519 (i.p. injections, 15 mg/kg/day, 5 days per week) or saline after they become 6 weeks old for 6 weeks (5 female mice for each group). Littermate wild-type control mice were treated by saline (VEH) for 6 weeks (3 female mice). Motor functions of the WFS1 knockout were evaluated using a 90° inclined screen test.
For the 90° inclined screen test, each mouse was placed on top of an elevated (47 cm above the floor) wire mesh grid (16 squares per 10 cm) that was inclined to 90°. Each mouse was placed in the middle of the screen with its head oriented down and was timed for how long it remained on the screen and how long it took to climb to the top of the screen.

The next data set has as its system INS-1 823/13 cells. The data set is described as follows: Thapsigargin-mediated cell death (caspase 3/7-Glo luminescence). Format: cell-based. Conditions: pretreated 24 hours, then 0.5 nM thapsigargin overnight; FIGS. 7-9. The source says:
(§1) A Caspase 3/7 assay (Promega, Madison, Wis.) was utilized to measure caspase-3 and -7 activities in various cell lines. The assay provides a proluminescent caspase-3/7 substrate, which contains the tetrapeptide sequence DEVD. This caspase-3/7 substrate can be added directly to cell lysates. The substrate is cleaved to release an aminoluciferin, which is a substrate for luciferase used in the production of light. The signal is proportional to caspase-3/7 activity. The stabilized luciferase and proprietary buffer system improve assay performance across a wide range of assay conditions, and the assay is less likely to be affected by compound interference unlike fluorescent- or colorimetric-based assays
The pathway leading to calpain-2 activation provides potential therapeutic targets for Wolfram syndrome, such as leakage of ER calcium to the cytosol. To test this concept, a small-scale screen was performed to identify chemical compounds that could prevent cell death mediated by thapsigargin, a known inhibitor for ER calcium ATPase. INS-1 823/13 cells were pretreated with […] in media containing 0.5 nM of thapsigargin (TG) overnight. Apoptosis was detected by caspase 3/7-Glo luminescence.

The subject of data set [1] is WFS1 depleted INS-1 832/13 cells. In words: Cell death in WFS1 depleted INS-1 832/13 cells (Caspase 3/7 activation). Format: cell-based. Conditions: pretreated 24 h with various concentrations, then DOX 48 h to deplete WFS1; FIGS. 3 and 4.
Excerpt: as §1
INS-1 832/13 cells in which WFS1 expression could be depleted by doxycycline (DOX)-inducible expression of shWFS1 were pretreated with or without various concentrations of JTV519 or oxidized JTV519 for 24 h and then treated with DOX for 48 h to deplete WFS1 and induce cell death. Apoptosis was measured by monitoring Caspase 3/7 activation.

The test system of another data set is INS-1E cells. The data set is described as follows: Cytokine-induced cell death in INS-1E cells (caspase 3/7 activity assay). Format: cell-based. Conditions: 1 μM-50 μM for 24 hours, then IL-1β and IFN-γ 50 ng/ml for 24 hours; FIG. 10.
Excerpt: as §1
To determine whether JTV519 can prevent ER calcium depletion and confer protection against ER stress-mediated cell death in a cell model of type 1 diabetes. INS-1E cells were pre-treated with 1 μM-50 μM of JTV519 for 24 hours then stressed for 24 hours with cytokines (IL-1β and IFN-γ 50 ng/ml). Apoptotic cell death was measured via caspase 3/7 activity assay. […] Data are expressed as mean±SEM from three independent experiments. *p<0.05 compared to cytokine treated cells unpaired t-test.

Data set [2] in a line: Pharmacokinetic study of JTV519 in CD1 mice (UPLC-MS/MS). Format: in vivo. The settings on record: for AUC(0-inf) / Cmax / half-life / Kp: CD-1 mouse; for Kp: read-out: AUC ratio (with plasma). Here is the method:
To study the pharmacokinetics of JTV519, the compound was synthesized as the HCl salt and formulated as a clear solution in 20% HP-β-CD in saline and intraperitoneally injected into CD1 mice. Samples of blood and pancreas tissue and whole brain and heart organs were collected from the mice and analyzed.
An ultra-performance liquid chromatography-tandem mass spectrometry (UPLC-MS/MS) method was developed to determine sample concentrations in the samples. Mass spectrometric analysis was performed on a Waters Xevo TQ-S triple quadrupole instrument using electrospray ionization in positive mode with the selected reaction monitoring (SRM). The MS/MS parameters were optimized by infusion compounds. The separation was performed on an Acquity BEH C18 column (50×2.1 mm, 1.7μ) using a Waters Acquity UPLC system with 0.6 mL/min flow rate and gradient elution. The column temperature was maintained at 60° C. The calibration standards (1.0-5000 ng/mL) and quality control samples were prepared in the blank mouse plasma. 10 μL plasma samples were mixed with 200 μL internal standard in acetonitrile to precipitate proteins in a 96-well plate. 1.0 μL supernatant was injected for the UPLC-MS/MS analysis

The next data set relates to INS-1 832/13 cells. The data set is described as follows: Cytosolic calcium levels by Fura-2AM in INS-1 832/13 cells challenged with thapsigargin. Format: cell-based. Conditions: range of concentrations, thapsigargin 1 μM added, FIGS. 5 and 6. Here is the method:
INS-1 832/13 cells were treated with JTV519 or JTV519-oxidized over a range of concentrations. Cytoplasmic calcium levels were measured by Fura-2AM calcium indicator over a period of minutes. Thapsigargin (1 μM) was added at the time point indicated by an arrow (n=6, the experiment was repeated 6 independent times) on FIGS. 5 and 6.

The subject of the next data set is mouse model of SCA. The settings on record: given with a RyR inhibitor; cited from earlier work.
Setting [3] is: conclusion from the pharmacokinetic study.

`COc1ccc2c(c1)CN(C(=O)CCN1CCC(Cc3ccccc3)CC1)CCS2` [JTV519, 3-(4-benzyl-1-piperidinyl)-1-(7-methoxy-2,3-dihydro-1,4-benzothiazepin-4(5H)-yl)-1-propanone]: the “motor functions (time to reach the top of the screen)” value with WFS1 gene knockout mice was “improved motor functions”. Moreover, the “thapsigargin mediated cell death (apoptosis, caspase 3/7-Glo)” value in the data set on INS-1 823/13 cells is on record as “did not significantly suppress thapsigargin mediated cell death”. The “cell death (apoptosis, Caspase 3/7 activation)” value in data set [1] is “suppress cell death”. Also, the “cytokine-induced cell death (caspase 3/7 activity)” value in the data set with INS-1E cells is “protects INS-1E cells from cytokine-induced cell death”. Also, the AUC(0-inf) (in general, total exposure, with the tail of the curve extrapolated) in data set [2] (brain, ip 30 mg/kg, n = 3) was found to be 10100 ng·h/mL; in data set [2] (heart, ip 30 mg/kg, n = 3) it was 29200 ng·h/mL; in data set [2] (pancreas, ip 30 mg/kg, n = 3) it was 146000 ng·h/mL; in data set [2] (plasma, ip 30 mg/kg), 3460 ng·h/mL. In addition, the Cmax (in general, the peak of the concentration-time curve) in data set [2] (brain, ip 30 mg/kg, n = 3) turned out to be 5130 ng/mL; in data set [2] (heart, ip 30 mg/kg, n = 3) it was 14300 ng/mL; in data set [2] (pancreas, ip 30 mg/kg, n = 3) it was 105000 ng/mL; in data set [2] (plasma, ip 30 mg/kg, HCl salt in 20% HP-β-CD in saline), 1810 ng/mL. For the same compound, the half-life (as a rule, the time needed for the level to fall by half in the phase considered) in data set [2] (brain, ip 30 mg/kg, n = 3) is 306 min; in data set [2] (heart, ip 30 mg/kg, n = 3), 240 min; in data set [2] (pancreas, ip 30 mg/kg, n = 3), 270 min; in data set [2] (plasma, ip 30 mg/kg), 426 min. Further, the Kp in data set [2] (brain, ip 30 mg/kg, n = 3) was found to be 2.9; in data set [2] (heart, ip 30 mg/kg, n = 3) it was 8.4; in data set [2] (pancreas, ip 30 mg/kg, n = 3), 42. Moreover, in data set [2] (setting [3]), the permeability entry is “good”. For the same compound, the solubility result in data set [2] (setting [3]) was “good”. Besides, in data set [2] (conclusion from the pharmacokinetic study, ip 30 mg/kg, mice), the “blood brain barrier passage” value is listed as “passed the blood brain barrier”. Besides, the cytosolic calcium levels entry in the data set on INS-1 832/13 cells was “decreased cytosolic calcium levels”.

`O=C1CN(/N=C/c2ccc(-c3ccc([N+](=O)[O-])cc3)o2)C(=O)[N-]1.[Na+]` [Dantrolene, 1-[[5-(4-nitrophenyl)-2-furyl]methylideneamino]imidazolidine-2,4-dione]: the “age dependent deficit of motor coordination” value with mouse model of SCA was “ameliorated the age dependent deficit of motor coordination”.
